Experiments:
rCTR(a) = test system: rCTR(a); parameters: method as in PMID 34288673; conditions: pEC50 = -LogEC50; cited from earlier work
[1] = test system: LPBN neurons of WT and RAMP1/3 KO mice; test: Study 4 cohort 1: cFos positive neurons, LPBN; format: in vivo, mouse; conditions: both 3 nmol/kg i.p., 90 min
Procedure: (§1) Mice were group housed in a controlled environment maintained at 21 ± 2 °C, under a 12/12 h light–dark cycle (lights off at 11.00 h). In the first cohort, 25 male WT and 25 male RAMP1/3 KO mice aged between 12 and 20 week-old were fed chow diet and maintained under group housing condition. In the second cohort, 18 male WT, 18 male RAMP1 KO, 18 male RAMP3 KO and 18 male RAMP1/3 KO mice aged between 10 and 15 week-old were fed chow diet and maintained under group housing condition.
For both cohorts, animals were deeply anesthetised 90 min later (pentobarbital 100 mg/kg, i.p) and transcardially perfused with cold 0.1 M of phosphate buffer (PB) for 1.5 min followed by 4% of paraformaldehyde (PFA) in PB for 2.5 min. Brains were removed and postfixed overnight in 4% of PFA and cryoprotected in 20% of sucrose-PB for 24 h. Brains were frozen in hexane on dry ice and stored at −80 °C until sectioning. […]
(§2) Photomicrographs of all sections containing AP, NTS and LPBN were taken at 20× magnification using Zeiss Axio Scan.Z1 slidescanner (Center for Microscopy and Image Analysis UZH, Zeiss, Germany). […] Scanned images were imported into QuPath (QuPath 0.5.0) for quantification. Three to four sections were counted and averaged per area of interest. […] The numbers of positive counted DAPI cells containing a cFos signal were automatically counted within the region. […]

WT 129S2 chow-fed mice = test: Study 1: acute food intake and body weight response; format: in vivo, mouse; conditions: all doses (3, 30, 300 nmol/kg s.c.)
Procedure: Thirty-two 12 week-old male WT 129S2/SvEv mice (Janvier Elevage, France) were individually housed in food monitoring cages (BioDAQ, New Brunswick, NJ, USA). Mice were housed in a controlled environment maintained at 21 ± 2 °C, under a 12/12 h light–dark cycle (lights off at 10.00 h). They were adapted to the cages and hoppers for 2 weeks before being tested. Mice were fed water and chow diet ad libitum (3.14 kcal/g of food; Kliba, Switzerland, cat# 3436).
Mice were injected subcutaneously (s.c.) at dark onset after a 4 h fast in the light phase with vehicle, 3 nmol/kg, 30 nmol/kg or 300 nmol/kg of cagrilintide.

[2] = test system: area postrema (AP) neurons of WT and RAMP1/3 KO mice; test: Study 4 cohort 1: cFos positive neurons, AP; format: in vivo, mouse; conditions: for Predicted (LS) mean diff., AP cFos after square root transformation: second statistical test, Figure 4b
Procedure: as §1
For both cohorts, animals were deeply anesthetised 90 min later (pentobarbital 100 mg/kg, i.p) and transcardially perfused with cold 0.1 M of phosphate buffer (PB) for 1.5 min followed by 4% of paraformaldehyde (PFA) in PB for 2.5 min. Brains were removed and postfixed overnight in 4% of PFA and cryoprotected in 20% of sucrose-PB for 24 h. Brains were frozen in hexane on dry ice and stored at −80 °C until sectioning. Stereological brain sampling of the areas of interest was performed and brain were serially cut on a cryostat (Leica Biosystems, Germany, cat# CM3050S), mounted on Superfrost Plus slides (Thermo Fisher Scientific, Reinach, Switzerland), and cryoprotected in 50% of PB, 30% of ethylene glycol, 20% of glycerol, and subsequently stored at −20 °C.
Blocking of the mouse brain sections was performed with 0.4% Triton–4% normal goat serum in PBS for 2 h at room temperature. AP/NTS and LPBN sections were incubated at 4 °C for 48 h with rabbit anti-Fos antibody (1:500, Cell signalling technology, Switzerland, Cat# 2250, RRID: AB_2247211), and then after PBS washes, incubated with goat anti-rabbit Alexa Fluor CY3 (1:200, LuBio Science GmbH, Switzerland for Jackson Immunoresearch, Cat# 111-165-144) or alexa fluor 488 for 2 h at room temperature. After thorough washing in PBS, the sections were counterstained with DAPI, mounted immediately and coverslipped with Vectashield antifade Mounting Medium (Vectorlabs, Burlingame, USA, cat# H-1400).[40]
Photomicrographs of all sections containing AP, NTS and LPBN were taken at 20× magnification using Zeiss Axio Scan.Z1 slidescanner (Center for Microscopy and Image Analysis UZH, Zeiss, Germany). All images for each study were acquired using the same exposure time. Scanned images were imported into QuPath (QuPath 0.5.0) for quantification. Three to four sections were counted and averaged per area of interest. A polygon tool was used manually to determine the boundary of the region of interest of the brain section. A cell detection tool was used to detect every cell in the section by using a built-in cell segmentation algorithm. The cell detection tool was used on the DAPI channel to make sure that only a cell was recognised and not the background or artefact by system. A detection classifier was created by using the create detection classifier function. The numbers of positive counted DAPI cells containing a cFos signal were automatically counted within the region. The experimental group was blinded to the experimenter during the analysis.

rAMYR3 = test system: rAMYR3; parameters: method as in PMID 34288673; conditions: pEC50 = -LogEC50; cited from earlier work
[3] = test system: WT and RAMP1/3 KO high fat diet fed mice; test: Study 3: body composition by EchoMRI; format: in vivo, mouse; conditions: 3 nmol/kg/d s.c., 3 weeks
Procedure: (§3) Mice were s.c. injected once a day for 3 weeks 1 h before dark onset between 9.00 and 10.00 h. Prior to injection, daily body weight and food intake were measured manually. On the day of sacrifice, mice were anesthetised with pentobarbital (100 mg/kg, i.p., Cantonal Pharmacy of Zurich, Switzerland) 24 h after receiving the last dose of peptide.
Brains were harvested, snap frozen on dry ice and kept at −80 °C until mRNA extraction for next-generation sequencing (NGS) analysis. Blood samples were collected from the right ventricle of the heart during the sacrifice in 1 mL EDTA-coated tubes containing dipeptidyl peptidase-4 inhibitor (10 μL/mL blood; Sigma Aldrich, Switzerland, cat# DPP4-010) and protease inhibitor (30 μL/mL blood; Sigma Aldrich, Switzerland, cat# P2714). After centrifugation, plasma was kept at −80 °C. The mice were stored at −20 °C until body composition analysis was performed.
Lean and fat mass were measured post-mortem using EchoMRI (EchoMRI LLC, USA) at the Zurich Integrative Rodent Physiology (University of Zurich). Calibrations and measurements were performed according to manufacturer's instructions. Two measurements were performed and averaged per mouse. Fat mass and lean mass values are expressed as percent of body weight.

[4] = test system: WT and RAMP1/3 KO high fat diet fed mice; test: Study 3: 3-week treatment, food intake and body weight; format: in vivo, mouse
Procedure: Male mice were housed in a controlled environment maintained at 21 ± 2 °C, under a 12/12 h light–dark cycle (lights off at 11.00 h). Mice had ad libitum access to standard chow (3.14 kcal/g of food; Kliba, Switzerland, cat# 3436) and water, until 3–4 weeks old. Twenty-four WT and twenty-four RAMP 1/3 KO male mice were fed a 60% fat HFD (5.24 kcal/g of food; SSNIFF Spezialdiäten GmbH, Germany, cat# EF D12452) provided ad libitum for 18 weeks. Then mice were fed to a 45% fat HFD (4.73 kcal/g of food; SSNIFF Spezialdiäten GmbH, Germany, cat# EF D12451) provided ad libitum for 6 weeks until the end of the study. The mice were group housed (3–4 mice per cage) until 1 week before the 21-day treatment period. Each cage was equipped with a red plastic house, tissue paper, nest-building material and wood shavings. Prior to the 21-day treatment, mice were injected with vehicle for three days to acclimate to the daily subcutaneous injections and reduce stress associated with the injections.
as §3

[5] = test system: AP neurons of WT, RAMP1 KO, RAMP3 KO and RAMP1/3 KO mice; test: Study 4 cohort 2: cFos positive neurons, AP; format: in vivo, mouse; conditions: 3 nmol/kg i.p.
Procedure: as §1
Cohort 2: WT, RAMP1 KO, RAMP3 KO and RAMP1/3 KO were injected i.p. at dark onset after a 12 h fast in the light phase with vehicle or cagrilintide (3 nmol/kg) (n = 6/group).
For both cohorts, animals were deeply anesthetised 90 min later (pentobarbital 100 mg/kg, i.p) and transcardially perfused with cold 0.1 M of phosphate buffer (PB) for 1.5 min followed by 4% of paraformaldehyde (PFA) in PB for 2.5 min. […]
as §2

Structure (SMILES): CC[C@H](C)[C@H](NC(=O)[C@@H]1CCCN1C(=O)CNC(=O)[C@H](Cc1ccccc1)NC(=O)[C@H](CC(N)=O)NC(=O)[C@H](CC(N)=O)NC(=O)[C@H](CO)NC(=O)[C@H](CO)NC(=O)[C@H](Cc1c[nH]cn1)NC(=O)[C@H](CCCNC(=N)N)NC(=O)[C@H](CC(C)C)NC(=O)[C@H](Cc1ccccc1)NC(=O)[C@H](CCC(=O)O)NC(=O)[C@H](C)NC(=O)[C@H](CC(C)C)NC(=O)[C@H](CCCNC(=N)N)NC(=O)[C@H](CCC(N)=O)NC(=O)[C@@H](NC(=O)[C@H](C)NC(=O)[C@@H]1CSSC[C@H](NC(=O)[C@H](CCCCN)NC(=O)CC[C@H](NC(=O)CCCCCCCCCCCCCCCCCCC(=O)O)C(=O)O)C(=O)N[C@@H](CC(N)=O)C(=O)N[C@@H]([C@@H](C)O)C(=O)N[C@@H](C)C(=O)N[C@@H]([C@@H](C)O)C(=O)N1)[C@@H](C)O)C(=O)N[C@@H](CC(C)C)C(=O)N1CCC[C@H]1C(=O)N1CCC[C@H]1C(=O)N[C@H](C(=O)N[C@@H](CC(N)=O)C(=O)N[C@H](C(=O)NCC(=O)N[C@@H](CO)C(=O)N[C@@H](CC(N)=O)C(=O)N[C@H](C(=O)N1CCC[C@H]1C(N)=O)[C@@H](C)O)C(C)C)[C@@H](C)O [Cagrilintide]
- Functional assay pEC50 [95% CI], cAMP, rCTR(a) (rCTR(a)): 9.54 [n.d] M
- cFos activated neurons in the LPBN, cagrilintide compared to sCT [1]: −36%
- acute effect on eating (WT 129S2 chow-fed mice): significantly reduced eating
- less cFos activated AP neurons in RAMP1/3 KO vs WT mice ([2]; 3 nmol/kg i.p., cohort 1, n = 5–6/group): 57%
- Predicted (LS) mean diff., AP cFos after square root transformation ([2]; Cagrilintide (3 nmol/kg), WT vs. RAMP 1/3 KO): 2.537
- Predicted (LS) mean diff., AP cFos after square root transformation ([2]; RAMP 1/3 KO, Vehicle vs. Cagrilintide (3 nmol/kg), Tukey): -3.878
- Predicted (LS) mean diff., AP cFos after square root transformation ([2]; WT, Vehicle vs. Cagrilintide (3 nmol/kg), Tukey): -6.224
- cFos activated neurons in the AP, cagrilintide compared to sCT ([2]; both 3 nmol/kg i.p., WT and KO mice, 90 min): −75%
- Functional assay pEC50 [95% CI], cAMP, rAMYR3 (rAMYR3): 9.46 [0.03] M
- relative fat mass, RAMP1/3 KO compared to WT-treated counterparts [3]: +32%
- relative lean mass, RAMP1/3 KO compared to WT-treated counterparts [3]: −22%
- effect on body weight ([4]; RAMP1/3 KO mice, 3 nmol/kg/d s.c., 21 days): no effect
- acute anorectic effect on day 1 ([4]; RAMP1/3 KO mice, cagrilintide 3, sCT 150 nmol/kg s.c.): no effect
- day 21 body weight loss vs WT Veh ([4]; WT mice, 3 nmol/kg/d s.c.): −66%
- Body weight change after 3-week treatment ([4]; WT mice, cagrilintide 3, sCT 150 nmol/kg s.c. SID, mean ± SEM, n = 8/group): -3.4 ± 0.51 g
- Food intake on Day 1 ([4]; WT mice, cagrilintide 3, sCT 150 nmol/kg s.c., mean ± SEM, n = 7–8/group): 1.2 ± 0.1 g
- decrease of activated AP neurons in RAMP1/3 KO compared to WT-injected mice [5]: 40%

— PMC12270663, “Cagrilintide lowers bodyweight through brain amylin receptors 1 and 3” (eBioMedicine, 2025)
